From patent US20260335323A1, “CHIMERIC MOLECULE” (UCL Business Ltd, priority 2023, published 2026)

system: SH-SY5Y cells; test: TMRM assay of mitochondrial membrane potential; assay type: cell-based, human
Method: FIG. 1. The structure of AUTAC-4 is shown in (A). (B) Representative images of SH-SY5Y cells stably expressing the mito-mKeima reporter treated with AUTAC4 for 18 h. Nuclei were stained with Hoechst 33342, healthy mitochondria are shown in green and mitochondria in lysosomes are shown in red. (C-E) Fold change in mitophagy index over time after treatment with increasing concentrations of AUTAC4 under treatment with DMSO (C), 3 mM CCCP (D) or 0.1/0.1 mM antimycin/oligomycin (E), also for 18 h. (F) Quantification of changes in mitochondrial membrane potential over time (DYm) by measuring the TMRM relative fluorescence intensity (RFI) treated with DMSO, 10 mM CCCP, 10 mM and 20 mM AUTAC4. Normalised to number of nuclei. (G) Representative western blot of SH-SY5Y cells treated with DMSO, 10 mM AUTAC4 or 10 mM AUTAC4+0.1/0.1 mM antimycin/oligomycin for 18 h and, probed for p62, b-actin and Tom20. Quantifications of western blot for changes in Tom20 and p62 levels shown in (H) and (I), respectively. (J) Representative images of PANC-1 cells stably expressing the mCherry-EGFP-LC3 tandem reporter. Nuclei stained with Hoechst 33342, autophagosomes are shown in the EGFP channel and autolysosomes in the mCherry channel. Fold change in the number of autophagosome (K) and autolysosome (L) puncta in AUTAC4 treated cells. […] For mito-mKeima experiments, statistics were calculated by Two-way ANOVA with Tukey's multiple comparisons test. For western blots, TMRM and LC3 tandem reporter assay, statistics were calculated with one-way ANOVA with Tukey's multiple comparisons test.
FIG. 5. […] (B) Quantification of the colocalised ULK1 to TOM20 spot area of PANC-1 cells treated with DMSO, 5 mM CCCP, 10 mM BL-918, 10 mM BL-918+5 mM CCCP, […] NZ-65, […] NZ-65+5 mM CCCP, […] NZ-66, […] NZ-66+5 mM CCCP, 50 mM TSPO ligand, […] NZ-65+50 mM TSPO ligand, […] NZ-66+50 mM TSPO ligand. (C) Western blot of SH-SY5Y cells treated with 1 mM ULKTACs, 5 mM CCCP or both, probed for Mfn2, b-Actin and Tom20—quantifications are shown in (D) for Mfn2, normalised to Actin. […]

For O=C(Nc1cc(C(F)(F)F)cc(C(F)(F)F)c1)N[C@@H](C(=O)Nc1ccc(F)cc1F)c1ccc(OCc2cn(CCOCCOCCNC(=O)C(=O)c3c(-c4ccccc4)[nH]c4ccccc34)nn2)cc1 [NZ-65, (R)-2-(3-(3,5-bis(trifluoromethyl)phenyl)ureido)-N-(2,4-difluorophenyl)-2-(4-((1-(2-(2-(2-(2-oxo-2-(2-phenyl-1H-indol-3-yl)acetamido)ethoxy)ethoxy)ethyl)-1H-1,2,3-triazol-4-yl)methoxy)phenyl) acetamide], which “mitochondrial membrane potential (TMRM)” value is on record?
Its value is “neither NZ-65 nor NZ-66 showed any effect”.

Which “mitochondrial membrane potential (TMRM)” value does the source give for O=C(Nc1ccc(F)cc1F)[C@H](NC(=S)Nc1cc(C(F)(F)F)cc(C(F)(F)F)c1)c1ccccc1 [BL-918, reference compound] here?
Its value is “depolarisation of the outer mitochondrial membrane at higher concentrations”.

With O=C(Nc1cc(C(F)(F)F)cc(C(F)(F)F)c1)N[C@@H](C(=O)Nc1ccc(F)cc1F)c1ccc(OCc2cn(CCCCCCNC(=O)C(=O)c3c(-c4ccccc4)[nH]c4ccccc34)nn2)cc1 [NZ-66, (R)-2-(3-(3,5-bis(trifluoromethyl)phenyl)ureido)-N-(2,4-difluorophenyl)-2-(4-((1-(6-(2-oxo-2-(2-phenyl-1H-indol-3-yl)acetamido)hexyl)-1H-1,2,3-triazol-4-yl)methoxy)phenyl) acetamide] as the compound, how does the “mitochondrial membrane potential (TMRM)” value read?
Its value is “neither NZ-65 nor NZ-66 showed any effect”.
